{
  "source": "ChEMBL document CHEMBL1127383",
  "about": "“Improved binding affinity for cyclophilin A by a cyclosporin derivative singly modified at its effector domain” (J Med Chem, 1994)",
  "key": {"Mus musculus": {"organism": "Mus musculus", "assay": "Compound was evaluated for in vitro immunosuppressive activity in the mouse mixed lymphocyte reaction (MLR-M)", "type": "functional"}, "[1]": {"assay": "Compound was evaluated for in vitro immunosuppressive activity in the interleukin-2 reporter gene assay (IL2-RG)", "type": "functional"}, "[2]": {"molecular_target": "Peptidyl-prolyl cis-trans isomerase A (Homo sapiens, UniProt P62937)", "sequence (P62937 whole entry)": "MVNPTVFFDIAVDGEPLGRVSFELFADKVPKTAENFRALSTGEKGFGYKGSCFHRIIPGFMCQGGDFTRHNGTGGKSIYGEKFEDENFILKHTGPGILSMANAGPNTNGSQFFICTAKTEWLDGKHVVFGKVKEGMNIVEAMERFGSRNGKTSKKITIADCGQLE", "assay": "Compound was evaluated for in vitro binding affinity to cyclophilin A (CyP-A)"}},
  "data": [
    {"smiles": "C/C=C/C[C@@H](C)[C@@H](O)[C@H]1C(=O)NC(CC)C(=O)N(C)CC(=O)N(C)[C@@H](C[C@@H](C)CC)C(=O)N[C@@H](C(C)C)C(=O)N(C)[C@@H](CC(C)C)C(=O)N[C@@H](C)C(=O)N[C@H](C)C(=O)N(C)[C@@H](CC(C)C)C(=O)N(C)[C@@H](CC(C)C)C(=O)N(C)C(C(C)C)C(=O)N1C", "note": "(single isomer, unassigned)", "values": [
      {"measurement": "IC50", "setting": "Mus musculus", "value": 45, "unit": "nM"},
      {"measurement": "IC50", "setting": "[1]", "value": 17, "unit": "nM"},
      {"measurement": "IC50", "setting": "[2]", "value": 2.3, "unit": "nM"}
    ]},
    {"smiles": "C/C=C/C[C@@H](C)[C@@H](O)[C@H]1C(=O)N[C@@H](CC)C(=O)N(C)CC(=O)N(C)[C@@H](C[C@@H](C)CC)C(=O)N[C@@H](C(C)C)C(=O)N(C)[C@@H](CC(C)C)C(=O)N[C@@H](C)C(=O)N[C@H](C)C(=O)N(C)[C@@H](CC(C)C)C(=O)N(C)[C@@H](CC(C)C)C(=O)N(C)[C@@H](C(C)C)C(=O)N1C", "values": [
      {"measurement": "IC50", "setting": "Mus musculus", "value": 46, "unit": "nM"},
      {"measurement": "IC50", "setting": "[1]", "value": 14, "unit": "nM"},
      {"measurement": "IC50", "setting": "[2]", "value": 16, "unit": "nM"}
    ]}
  ]
}
